Test results taken from patent US20080206447A1, “ORGANIC-ELECTROLUMINESCENCE-MATERIAL-CONTAINING SOLUTION, METHOD FOR FORMING ORGANIC ELECTROLUMINESCENCE THIN FILM AND ORGANIC ELECTROLUMINESCENCE DEVICE” (Idemitsu Kosan Co., Ltd., priority 2007, published 2008).

How the values were obtained:
Type in all cases: physicochemical
Viscosity of the solvent = conditions: neat solvent, 22 degrees C
Protocol: 100 mg of a compound A represented by the following formula was put into a sample bottle, and a solvent was dropped thereinto while stirring until the compound A was completely dissolved. The solubility of the compound A in the solvent was calculated from an amount of the dropped solvent. The viscosity of the solvent was measured at the temperature of 22 degrees C.

[1] = Solubility in 4-isopropylbiphenyl at 0.5 wt % by visual check; parameters: key to Solubility: A: solution that contained no insoluble element; B: solution that contained insoluble element(s); conditions: for Solubility in 4-isopropylbiphenyl (in words): 0.5 wt %; for Solubility: added to 4-isopropylbiphenyl at 0.5 wt %, visual check
From the text: The results are shown in Table 2, where solution that contained no insoluble element is rated as “A” while solution that contained insoluble element(s) is rated as “B”.

[2] = Solvent solubility of para-substituted naphthacene compound; conditions: solvent not stated

| Compound | Solubility [1] | Viscosity (Viscosity of the solvent) [cP] | also measured |
| --- | --- | --- | --- |
| Cc1ccc(Cc2ccc(C)c(C)c2)cc1C [1,1-bis(3,4-dimethylphenyl)methane] |  | 33.6 |  |
| c1cc(-c2ccc3ccccc3c2)cc(-c2c3ccccc3c(-c3ccc4cc(-c5ccc6ccccc6c5)ccc4c3)c3ccccc23)c1 [Compound G] | B |  | Solubility in 4-isopropylbiphenyl (in words) [1]: low solubility |
| xylene |  | 0.76 |  |
| CCCCCCCCCCCCc1ccccc1 [dodecylbenzene] |  | 4.5 |  |
| c1ccc(-c2ccc(-c3c4ccccc4c(-c4ccccc4)c4ccccc34)cc2)cc1 [Compound H] | B |  | Solubility in 4-isopropylbiphenyl (in words) [1]: low solubility |
| c1cc(-c2ccc3ccccc3c2)cc(-c2c3ccccc3c(-c3cccc4ccccc34)c3ccccc23)c1 [Compound F] | B |  | Solubility in 4-isopropylbiphenyl (in words) [1]: low solubility |
| c1ccc(-c2cc(-c3ccc4ccccc4c3)cc(-c3c4ccccc4c(-c4ccc5ccccc5c4)c4ccccc34)c2)cc1 [Compound E] | A |  |  |
| c1ccc2c(c1)CCCC2 [tetralin] |  | 2.3 |  |
| CCc1cccc(-c2ccccc2)c1 [3-ethylbiphenyl] |  | 5.6 |  |
| c1cc(-c2ccc(-c3ccc4ccccc4c3)cc2)cc(-c2c3ccccc3c(-c3ccc(-c4cccc5ccccc45)cc3)c3ccccc23)c1 [Compound B] | A |  |  |
| Cc1ccccc1 [toluene] |  | 0.65 |  |
| c1ccc(-c2ccc(-c3c4ccccc4c(-c4ccc(-c5ccccc5)cc4-c4ccccc4)c4cc5ccccc5cc34)c(-c3ccccc3)c2)cc1 [drawing 5] |  |  | Solubility [2]: ≤ 0.1 wt % |
| CCC(C)c1ccccc1 (centres unmarked) [s-butylbenzene] |  | 1.0 |  |
| Cc1cc(C)cc(C)c1 [mesitylene] |  | 0.76 |  |
| c1ccc2cc(-c3ccc(-c4c5ccccc5c(-c5ccc(-c6cccc7ccccc67)cc5)c5ccccc45)cc3)ccc2c1 [Compound C] | A |  |  |
| CC(C)c1ccc(-c2ccccc2)cc1 [4-isopropylbiphenyl] |  | 6.9 |  |
| c1ccc(C2CCCCC2)cc1 [cyclohexyl benzene] |  | 2.6 |  |
| c1ccc(-c2c3ccccc3c(-c3cccc(-c4cccc(-c5c6ccccc6c(-c6ccccc6)c6ccccc56)c4)c3)c3ccccc23)cc1 [Compound I] | B |  | Solubility in 4-isopropylbiphenyl (in words) [1]: low solubility |
| c1ccc2cc(-c3ccc4cc(-c5c6ccccc6c(-c6ccc(-c7cccc8ccccc78)cc6)c6ccccc56)ccc4c3)ccc2c1 [Compound D] | A |  |  |
| CC(C)(C)c1ccccc1 [t-butylbenzene] |  | 1.2 |  |

The next lines start with results.

| Solubility [1] | Compound | Viscosity (Viscosity of the solvent) [cP] | also measured |
| --- | --- | --- | --- |
| B | c1ccc(-c2ccc(-c3c4ccccc4c(-c4ccc(-c5ccccc5)cc4-c4ccccc4)c4cc5ccccc5cc34)c(-c3ccccc3)c2)cc1 [Compound L] |  | Solubility in 4-isopropylbiphenyl (in words) [1]: low solubility |
| A | c1ccc(-c2cc(-c3ccccc3)c(-c3c4ccccc4c(-c4ccccc4)c4cc5ccccc5cc34)c(-c3ccccc3)c2)cc1 [Compound K] |  |  |
| B | c1ccc(-c2c3ccccc3c(-c3ccccc3)c3c(-c4ccccc4)c4ccccc4c(-c4ccccc4)c23)cc1 [Compound N] |  | Solubility in 4-isopropylbiphenyl (in words) [1]: lower solubility than the compounds J, K |
| B | c1ccc(-c2ccc(-c3c4ccccc4c(-c4ccc(-c5ccccc5)cc4)c4cc5ccccc5cc34)cc2)cc1 [Compound M] |  | Solubility in 4-isopropylbiphenyl (in words) [1]: low solubility |
| A | c1ccc(-c2ccc(-c3ccccc3)c(-c3ccc(-c4cc(-c5ccccc5)ccc4-c4ccccc4)c4cc5cc6ccccc6cc5cc34)c2)cc1 [Compound J] |  |  |
